Experimental data as given in patent US20130053374A1, “OPHTHALMIC COMPOSITION” (priority 2010, published 2013).
Converted amounts (≈) assume the structure as drawn. Read-outs that look alike come from different tables or passages of the source.

What was measured:
[1] = Aqueous solubility of Dorzolamide in the presence of Timolol with HP, PEG, Polysorbate 80 (Experimental Example 3); type: physicochemical
Protocol: The final pH was adjusted to 5.65 with 1 M NaOH after addition of HP (sample 1). The combination of different molecular weight PEG and Polysorbate 80 at pH 5.65 as per Table 3 were also attempted. […] After allowing the suspensions to equilibrate at room temperature for an additional 30 minutes, the suspension solutions were then sonicated for 10 minutes and finally filtered through 0.45 μm syringe filters.

intact rabbit corneas [2] = conditions: for enhancement of corneal permeation rate: male, New Zealand, rabbit, 180 min, pH 5.65
Protocol: The samples were filtered by 0.45 μm filter syringe. The initial concentration of both the samples was determined by UPLC analysis.
Three male rabbits (New Zealand) weighing 3-4 pounds. The age of the rabbits was 11-12 weeks. Immediately after sacrifice by an overdose of carbon dioxide gas, the eyes were enucleated, saline washed, and the corneas were separated for the use in permeation experiments. Each cornea was rinsed with freshly prepared receptor solution (Table 4) to remove excess stain. The six intact and fresh corneas were fixed between clamped donor and receptor compartments of an all glass side-by-side diffusion cell in such a way that its epithelial surface faces the donor compartment.
The corneal area available for permeation was 0.211 cm^2. The receptor compartment was filled with freshly prepared receptor solution at pH 7.2, as per the composition described in Table 4. An aliquot (5 mL) of sample #1 was placed on the two intact corneas, and the opening of the donor cells was sealed with a glass cover slip. After 10 minutes of applying sample #1, an aliquot (5 mL) of sample #2 was applied on the next two intact corneas. Again, after 10 minutes, sample #3 aliquot (5 mL) was applied on the remaining two intact corneas. The receptor fluid (5 mL in each receptor cell) was kept at constant temperature of 34° C. using constant stirring through water jacket in all the six cases. At predetermined time intervals of 10, 20, 40, 60, 80, 100, 120, 140, 160, and 180 minutes, 200 μL samples were withdrawn from the receptor solution. Thereafter, the same amount of the phosphate buffer solution was added to the receptor cell. The drug concentrations were assayed by UPLC.
At the end of the experiment, each cornea (free from adhering sclera) was weighed after soaking in de-ionized water. The wet cornea was dried overnight in oven, and reweighed. From the difference of weights, corneal hydration was calculated. […] The parameters that were calculated are as follows:

intact rabbit corneas [3] = test system: intact rabbit corneas
Excerpt: These suspension solutions were used directly as sample donor solutions for the cornea permeation study. In order to determine the solubility, the suspensions were filtered through 0.45 μm syringe filters.
Three male rabbits (New Zealand) weighing 2 to 3 kg. Immediately after sacrifice by an overdose of inhaler isoflurane, the eyes were enucleated, and the corneas were separated for use in the permeation experiments.

intact rabbit corneas [4] = test system: intact rabbit corneas; remark: listed apart in the source
Protocol: 10 mM phosphate buffer was added to the appropriately weighed mass of the solid active ingredients, and stirred thoroughly for 15 minutes. […] The three test solutions were then stirred for 10 minutes at room temperature (with heating up to 60° C. for 5 minutes). After stirring, the solution was sonicated for 5 minutes. After allowing the complete dilution of all the active and non-active ingredients, the pH was adjusted to either 7.4 or 5.65 by using 1 M NaOH or 1 M HCl, and additional buffer was added to make up the exact compositions in the Table 15. With the adjustment of pH, the appearance was noted as per Table 14, and the formulations were further equilibrated by stirring for an additional 15 hours or more at room temperature. The pH of the all sample solutions was measured again to confirm the final desired pH. These formulations were used directly as sample donor solutions for the cornea permeation study.

isolated rabbit cornea = conditions: pH 7.4
Excerpt: The permeability coefficient is inversely proportional to the initial concentration of the drug in the donor solution.

[5] = pH-solubility of Dorzolamide with hyperbranched polymer and PEG (Experimental Example 1); type: physicochemical; conditions: 0.1% (w/v) phosphate buffer, FIG. 1
Protocol: Similar suspensions were also prepared in aqueous solution containing different concentrations of different HP and PEG with a molecular weight of 8000. A combination of Polysorbate 80 and PEG 8000 was also attempted. The pH was measured accurately with micro-pH electrode (Thermo Scientific). The desired pH was adjusted using either 1 M NaOH or 1 M HCl. […] After allowing the suspensions to equilibrate at room temperature for an additional 30 minutes, the suspension solutions were then sonicated for 10 minutes and finally filtered through 0.45 μm syringe filters.

[6] = cited from earlier work; for pKa (amine group): protonated secondary amine (Dorzolamide), amine (Brinzolamide); for pKa (sulfonamide group): sulfonamide (Dorzolamide), primary sulfonamide (Brinzolamide)
physchem = type: physicochemical; conditions: pH 7, aqueous with cosolvent or surfactant or cyclodextrin, thermodynamic from solid
Protocol: After allowing the suspensions to equilibrate at room temperature for additional 30 minutes, the suspension solutions were then sonicated for 10 min and finally filtered through 0.45 μm syringe filters.

[7] = Solubility of CAI with Bis-MPA hyperbranched polyester or PEG combination at pH 7.4 (Experimental Example 9); type: physicochemical; conditions: pH 7.4, 0.5% Timolol, 5% 3rd BMPA-HP
Protocol: Secondly, the effective volume of 5% (w/v) BMPA-HP solution was diluted appropriately to make up the exact concentrations described in Table 18. […] After stirring, the solution was sonicated for 5 minutes. […] The filtrates were analyzed for CAI using UPLC with the same condition as EXPERIMENTAL EXAMPLE 1.

[8] = pH 7.4, 0.5% (w/v) Timolol, 5% (w/v) HP (Boltorn W3000)
Protocol: The emulsion was prepared by slowing dispersing water to the weighed amount of waxed Boltorn® W3000 to make 5% (w/v) emulsion with continuous stirring and heating at 60-70° C. for at least 30 minutes, followed by continuous vigorous stirring for an additional 15 hours, to obtain a homogeneous emulsion mixture in a flask.
10 mM phosphate buffer was added to the appropriately weighed mass of solid active ingredients and stirred thoroughly for 15 minutes. Secondly, the effective volume of 5% (w/v) HP emulsion solution was diluted appropriately to make up the exact concentrations described in Table 13. The sample test emulsion solutions were then stirred for 10 minutes at room temperature (with heating up to 60° C. for 5 minutes). After stirring, the emulsion solution was sonicated for 5 minutes. After allowing the complete emulsion of all the active and non-active ingredients, the pH was adjusted to 7.4 by using 1 M NaOH, and additional buffer was added to make up the exact compositions in Table 13. With the adjustment of the pH, the emulsion solutions were further equilibrated by stirring for an additional 15 hours or more at room temperature. The pH of all the sample emulsion solutions was measured again to confirm the final desired pH of 7.4.

Compound	solubility of Timolol with the addition of additives ([1]; pH 5.65 and pH 7, samples containing 0.5% w/v Timolol)	diffusion coefficient on addition of HP and Polysorbate 80 (intact rabbit corneas [2])	enhancement of corneal permeation rate (intact rabbit corneas [2])	diffusion coefficient on addition of HP (intact rabbit corneas [3])	diffusion coefficient on addition of HP (intact rabbit corneas [4])	cumulative amount permeated relative to control formulation at similar pH with no additives (intact rabbit corneas [4]; male, New Zealand, rabbit, 180 min, pH 7.4) [times]	cumulative amount permeated relative to the market product (isolated rabbit cornea; male, New Zealand, rabbit, 180 min)	pH-solubility profile (aqueous solubility vs pH) [5]	solubility thermodynamic at 30 min ([1]; aqueous buffer, thermodynamic from solid, pH 7, 10 mM phosphate buffer, no additives) [mg/mL]	pKa (amine group) [6]	pKa (sulfonamide group) [6]	cumulative amount permeated compared to the market product (isolated rabbit cornea)	solubility at 30 min (physchem) [mg/mL]	solubility [7]	solubility [8]
CC(C)(C)NC[C@H](O)COc1nsnc1N1CCOCC1 [Timolol]	did not change	did not change significantly	25-30%	did not change significantly	did not change significantly	~2	more than 2 times								
CCN[C@H]1C[C@H](C)S(=O)(=O)c2sc(S(N)(=O)=O)cc21 [Dorzolamide]		did not change significantly	25-30%	did not change significantly	did not change significantly			reaches a bottom at pH 7	< 5	6.35	8.5	almost comparable			
CCN[C@H]1CN(CCCOC)S(=O)(=O)c2sc(S(N)(=O)=O)cc21 [Brinzolamide]										5.9	8.4		~11 (≈ 28.7 mM)	about 1 % (w/v)	about 2 % (w/v)
